Measured values: the NIST ThermoML archive (doi:10.1021/je0301489)
Numbers after ± are expanded uncertainties.

Legend:
[1] = xn = mol fraction of the nth substance listed; conditions: 101.33 kPa, Liquid
[2] = refractive index (Na D-line) (dimensionless); xn = mol fraction of the nth substance listed; conditions: 101.33 kPa, Liquid

CCCCCCCCOC(=O)c1ccccc1C(=O)OCCCCCCCC [dioctyl 1,2-benzenedicarboxylate] + C1COCCO1
Conditions | mass density, 298.15 K [kg/m3] | mass density, 303.15 K [kg/m3] | mass density, 308.15 K [kg/m3] | refractive index, 298.15 K | refractive index, 303.15 K | refractive index, 308.15 K | speed of sound, 298.15 K [m/s] | viscosity, 298.15 K [mPa·s] | viscosity, 303.15 K [mPa·s] | viscosity, 308.15 K [mPa·s]
[1], x2 = 0 | 980.7 ± 1 | 977.1 ± 1 | 973.1 ± 1 | – | – | – | 1421 ± 3 | 43.03 ± 0.7 | 30.18 ± 0.5 | 21.88 ± 0.37
[1], x2 = 0.1337 | 982.2 ± 1 | 978.3 ± 1 | 974.4 ± 1.1 | – | – | – | 1416 ± 3 | 32.58 ± 0.54 | 24.97 ± 0.42 | 17.36 ± 0.3
[1], x2 = 0.2243 | 983.4 ± 1 | 979.4 ± 1 | 975.2 ± 1.1 | – | – | – | 1412 ± 3 | 26.39 ± 0.44 | 20.41 ± 0.35 | 14.44 ± 0.26
[1], x2 = 0.3207 | 984.8 ± 1 | 980.5 ± 1 | 976.4 ± 1.1 | – | – | – | 1406 ± 3 | 20.73 ± 0.36 | 16.1 ± 0.28 | 11.47 ± 0.21
[1], x2 = 0.4226 | 986.5 ± 1 | 982.2 ± 1 | 977.8 ± 1.1 | – | – | – | 1400 ± 3 | 15.4 ± 0.27 | 12.12 ± 0.22 | 8.836 ± 0.17
[1], x2 = 0.5169 | 988.4 ± 1 | 983.9 ± 1.1 | 979.6 ± 1.1 | – | – | – | 1394 ± 3 | 11.02 ± 0.21 | 8.852 ± 0.17 | 6.689 ± 0.14
[1], x2 = 0.6054 | 990.7 ± 1 | 986.3 ± 1.1 | 981.9 ± 1.1 | – | – | – | 1388 ± 3 | 8.056 ± 0.16 | 6.528 ± 0.13 | 5.001 ± 0.11
[1], x2 = 0.7161 | 995 ± 1.1 | 990.5 ± 1.1 | 985.9 ± 1.1 | – | – | – | 1379 ± 3 | 4.947 ± 0.11 | 4.096 ± 0.091 | 3.246 ± 0.073
[1], x2 = 0.8031 | 1000.2 ± 1.1 | 995.4 ± 1.1 | 990.6 ± 1.1 | – | – | – | 1372 ± 3 | 3.213 ± 0.073 | 2.717 ± 0.062 | 2.222 ± 0.052
[1], x2 = 0.9017 | 1009.9 ± 1.1 | 1004.6 ± 1.1 | 999.5 ± 1.2 | – | – | – | 1361 ± 3 | 1.863 ± 0.044 | 1.612 ± 0.039 | 1.361 ± 0.033
[2], x2 = 0 | – | – | – | 1.485 ± 0.0025 | 1.4831 ± 0.0025 | 1.481 ± 0.0025 | – | – | – | –
[2], x2 = 0.1337 | – | – | – | 1.4836 ± 0.0025 | 1.4819 ± 0.0025 | 1.4804 ± 0.0025 | – | – | – | –
[2], x2 = 0.2243 | – | – | – | 1.4822 ± 0.0025 | 1.4798 ± 0.0025 | 1.4775 ± 0.0025 | – | – | – | –
[2], x2 = 0.3207 | – | – | – | 1.4812 ± 0.0025 | 1.4784 ± 0.0025 | 1.4756 ± 0.0025 | – | – | – | –
[2], x2 = 0.4226 | – | – | – | 1.4781 ± 0.0025 | 1.4771 ± 0.0025 | 1.4762 ± 0.0025 | – | – | – | –
[2], x2 = 0.5169 | – | – | – | 1.4733 ± 0.0025 | 1.4717 ± 0.0025 | 1.47 ± 0.0025 | – | – | – | –
[2], x2 = 0.6054 | – | – | – | 1.4692 ± 0.0025 | 1.4673 ± 0.0025 | 1.4652 ± 0.0025 | – | – | – | –
[2], x2 = 0.7161 | – | – | – | 1.463 ± 0.0025 | 1.461 ± 0.0025 | 1.46 ± 0.0025 | – | – | – | –
[2], x2 = 0.8031 | – | – | – | 1.4566 ± 0.0025 | 1.4541 ± 0.0025 | 1.4516 ± 0.0025 | – | – | – | –
[2], x2 = 0.9017 | – | – | – | 1.4422 ± 0.0025 | 1.4401 ± 0.0025 | 1.4379 ± 0.0025 | – | – | – | –

CCOC(=O)CC(C)=O [ethyl 3-oxobutanoate] + C1COCCO1
Conditions | mass density, 298.15 K [kg/m3] | mass density, 303.15 K [kg/m3] | mass density, 308.15 K [kg/m3] | refractive index, 298.15 K | refractive index, 303.15 K | refractive index, 308.15 K | speed of sound, 298.15 K [m/s] | viscosity, 298.15 K [mPa·s] | viscosity, 303.15 K [mPa·s] | viscosity, 308.15 K [mPa·s]
[1], x2 = 0 | 1020.9 ± 1.1 | 1014.9 ± 1.2 | 1010.2 ± 1.2 | – | – | – | 1331 ± 3 | 1.48 ± 0.019 | 1.339 ± 0.017 | 1.239 ± 0.016
[1], x2 = 0.1134 | 1021.5 ± 1.1 | 1016 ± 1.2 | 1010.6 ± 1.2 | – | – | – | 1335 ± 3 | 1.425 ± 0.018 | 1.311 ± 0.017 | 1.197 ± 0.016
[1], x2 = 0.2058 | 1022.1 ± 1.1 | 1016.5 ± 1.2 | 1011 ± 1.2 | – | – | – | 1338 ± 3 | 1.386 ± 0.018 | 1.276 ± 0.017 | 1.165 ± 0.015
[1], x2 = 0.3054 | 1022.7 ± 1.1 | 1017.1 ± 1.2 | 1011.4 ± 1.2 | – | – | – | 1340 ± 3 | 1.346 ± 0.017 | 1.24 ± 0.016 | 1.133 ± 0.015
[1], x2 = 0.4008 | 1023.3 ± 1.1 | 1017.6 ± 1.2 | 1011.9 ± 1.2 | – | – | – | 1342 ± 3 | 1.309 ± 0.017 | 1.205 ± 0.016 | 1.102 ± 0.015
[1], x2 = 0.4986 | 1024 ± 1.1 | 1018.2 ± 1.2 | 1012.4 ± 1.2 | – | – | – | 1344 ± 3 | 1.272 ± 0.017 | 1.172 ± 0.015 | 1.072 ± 0.014
[1], x2 = 0.5955 | 1024.7 ± 1.1 | 1018.8 ± 1.2 | 1013 ± 1.2 | – | – | – | 1345 ± 3 | 1.237 ± 0.016 | 1.14 ± 0.015 | 1.044 ± 0.014
[1], x2 = 0.6972 | 1025.4 ± 1.1 | 1019.5 ± 1.2 | 1013.7 ± 1.2 | – | – | – | 1346 ± 3 | 1.208 ± 0.016 | 1.115 ± 0.015 | 1.021 ± 0.014
[1], x2 = 0.7971 | 1026.1 ± 1.1 | 1020.3 ± 1.2 | 1014.4 ± 1.2 | – | – | – | 1346 ± 3 | 1.182 ± 0.015 | 1.091 ± 0.014 | 1 ± 0.013
[1], x2 = 0.8964 | 1026.8 ± 1.1 | 1021 ± 1.2 | 1015.2 ± 1.2 | – | – | – | 1347 ± 3 | 1.166 ± 0.015 | 1.077 ± 0.014 | 0.988 ± 0.013
[2], x2 = 0 | – | – | – | 1.4166 ± 0.0007 | 1.4145 ± 0.0007 | 1.412 ± 0.0007 | – | – | – | –
[2], x2 = 0.1134 | – | – | – | 1.417 ± 0.0007 | 1.4146 ± 0.0007 | 1.4122 ± 0.0007 | – | – | – | –
[2], x2 = 0.2058 | – | – | – | 1.4171 ± 0.0007 | 1.4148 ± 0.0007 | 1.4124 ± 0.0007 | – | – | – | –
[2], x2 = 0.3054 | – | – | – | 1.4174 ± 0.0007 | 1.415 ± 0.0007 | 1.4126 ± 0.0007 | – | – | – | –
[2], x2 = 0.4008 | – | – | – | 1.4176 ± 0.0007 | 1.4154 ± 0.0007 | 1.413 ± 0.0007 | – | – | – | –
[2], x2 = 0.4986 | – | – | – | 1.4178 ± 0.0007 | 1.4155 ± 0.0007 | 1.413 ± 0.0007 | – | – | – | –
[2], x2 = 0.5955 | – | – | – | 1.418 ± 0.0007 | 1.416 ± 0.0007 | 1.4132 ± 0.0007 | – | – | – | –
[2], x2 = 0.6972 | – | – | – | 1.4186 ± 0.0007 | 1.4162 ± 0.0007 | 1.4137 ± 0.0007 | – | – | – | –
[2], x2 = 0.7971 | – | – | – | 1.4192 ± 0.0007 | 1.4166 ± 0.0007 | 1.414 ± 0.0007 | – | – | – | –
[2], x2 = 0.8964 | – | – | – | 1.4195 ± 0.0007 | 1.4169 ± 0.0007 | 1.4144 ± 0.0007 | – | – | – | –
